# Laboratory results from US20060264423A1 (BIOENVISION, INC., priority 2005, published 2006).
# Like-named read-outs stand apart in the source and are kept apart here.
# How the values were obtained:
# [1] = in vivo; cited from earlier work
# [2] = system: Herpes B; settings: cited from earlier work
# [3] = system: chronic hepatitis B or C; settings: patients with chronic hepatitis B or C; cited from earlier work
# [4] = in vivo; cited from earlier work; remark: listed apart in the source
# [5] = in vivo; cited from earlier work; remark: listed apart in the source
# [6] = system: hepatitis C, genotype 4; assay: Open label clinical trial of oral methylene blue, reduction in hepatitis C viral load measured by PCR
# [7] = cited from earlier work
# [8] = sheep; doses as high as 50 mg/kg; cited from earlier work
# [9] = in vivo; cited from earlier work; remark: listed apart in the source
# [10] = sheep; cited from earlier work
# [11] = at 50 days, of the 23 responders
compound,measurement,setting,value
CC(=O)OCC(CCn1cnc2cnc(N)nc21)COC(C)=O [famciclovir],oral bioavailability superior to that of oral acyclovir,[1],3-5 times
CC(C)[C@H](N)C(=O)OCCOCn1cnc2c(=O)[nH]c(N)nc21 [Valaciclovir],oral bioavailability superior to that of oral acyclovir,[1],3-5 times
Nc1nc(O)c2ncn(COC(CO)CO)c2n1 [Ganciclovir],sensitivity of the virus in vitro,[2],sensitive
Nc1nc2c(ncn2COCCO)c(=O)[nH]1 [Acyclovir],sensitivity of the virus in vitro,[2],sensitive
Interferon alpha,patients in whom treatment is effective,[3],25-30%
"CN(C)c1ccc2nc3ccc(N(C)C)cc3[s+]c2c1 [methylene blue, 3,7-Bis(dimethylamino)-phenothiazin-5-ium chloride]",absorption from the GI tract,[4],absorbed well
same,crossing of the blood-milk barrier,[5],crosses the blood-milk barrier easily
same,decrease in viral count,"[6]; 23 patients (of 25, genotype 4), at 50 days",70-100%
same,non-responders,"[6]; at 50 days, 25 patients, genotype 4",Two
same,responders with between 0.7-1 log reduction in viral load,[6]; [11],12 (52%) patients (%)
same,responders with between 1-2 log reduction in viral load,[6]; [11],6 (26%) patients (%)
same,responders with viral clearance,[6]; [11],5 (22%) patients (%)
same,drop in viral load,"[6]; interim results, 8 of 9 patients, within the first 50 days",62%-100
same,patients with between greater than or equal to 0.6 log to less than or equal to 1 log reduction in viral load,"[6]; interim results, first 9 patients, 50 days of treatment",89%
same,patients with a greater than or equal to two log reduction in viral load,"[6]; interim results, first 9 patients, 50 days of treatment, 65 mg twice daily oral",33%
same,efficacy in treating hepatitis C (conclusion),[6]; overall conclusion of the trial results,highly efficacious
same,side effects,"[7]; adult humans, one week to 19 months, 100 mg b.i.d. or t.i.d. orally or 100 mg intravenously",minimal side effects
same,side effects,"[7]; recommended dose 50 to 300 mg by mouth, 1 to 4 mg/kg intravenously","blue urine, occasional nausea, anemia and fever"
same,methemoglobin production,[8],minimal methemoglobin production
same,oral absorption (range),[9],55% to 97
same,overall elimination rate constant,[10],0.0076 ± 0.0016 min⁻¹
